Like-named read-outs stand apart in the source and are kept apart here.
Tests used:
[1] = tested on: catalase (CAT); assay: Intracellular CAT activity in ABAP-treated HepG2 cells; type: cell-based; conditions: for CAT activity of PC value: then ABAP, % of PC value
Experimental: (§1) HepG2 cells were seeded (1 × 10^6 cells/well) in six-well plates. After incubation for 24 h, the cells were pretreated with different concentration samples. Medium was washed by PBS and treated with 600 μM ABAP. The cells were collected and treated with cell lysis buffer (20 mM Tris at pH 7.5, 150 mM NaCl and 1% Triton X-100) at 4°C. The lysed cells were used to measure the intracellular activities of SOD, CAT, and GSH-Px by kits according to the manufacturer instructions (Wen 2015). Cells without sample and ABAP treatment were used as positive control (PC), while cells treated with ABAP but not sample were used as negative control (NC).

[2] = tested on: HepG2 cells; assay: Antiproliferative activity assay (CCK-8); type: cell-based
Experimental: (§2) The cytotoxicity and antiproliferative activity assays were performed by using the CCK-8 assay kit. Briefly, HepG2 cells were cultured at a density of 4 × 10^4 cells/well or 2.5 × 10^4 cells/well in a 96-well microplate with growth medium. After incubation at 37°C, the growth medium is treated with 100 μL of growth medium containing different concentrations of tested compounds for 24 h or 72 h. The wells having growth medium without the tested compound served as control. Then, the cells were incubated with 10 μL/well CCK-8 solutions for 2 h at 37°C. The absorbance values of each well were measured at 450 nm using a microplate reader (SpectraMax i3x, ForteBio Analytics Co., Ltd., USA). The cytotoxic activity and antiproliferative effects of the tested compound was calculated as(1) Cytotoxicity %=1−As/Ac×100%, (2) Cell proliferation %=As/Ac×100%, where As is the absorbance of the well with compound; Ac is the absorbance of control.

[3] = tested on: superoxide dismutase (SOD); assay: Intracellular SOD activity in ABAP-treated HepG2 cells; type: cell-based; conditions: then ABAP
Experimental: as §1

[4] = tested on: HepG2 cells; assay: Cytotoxicity assay (CCK-8); type: cell-based; conditions: range of 10-160 μM
Experimental: as §2

[5] = tested on: glutathione peroxidase (GSH-Px); assay: Intracellular GSH-Px activity in ABAP-treated HepG2 cells; type: cell-based; conditions: for GSH-Px activity of PC value: then ABAP, % of PC value
Experimental: as §1

[6] = tested on: HepG2 cells; assay: Cellular antioxidant activity (CAA) assay; type: cell-based; conditions: Homo sapiens, DCFH-DA 25 μM, ABAP 600 μM
Experimental: The CAA assay was tested as described previously. 6 × 10^4 cells/well of HepG2 cells were seeded at a 96-well microplate with 100 μL of growth medium/well. […] Then, the cells were washed with PBS and treated with 100 μL of 600 μM ABAP (dissolved in HBSS), and the 96-well microplate was immediately placed into an Infinite SpectraMax i3x Multi-Mode Detection plate-reader at 37°C. […]

[7] = Oxygen radical antioxidant capacity (ORAC) assay; conditions: Trolox equivalents; AAPH, fluorescein
Experimental: The ORAC assay was evaluated as previously described by Cao et al. with some modifications. 50 μL of samples or Trolox with different concentrations and the fluorescein solution was added to a 96-well microplate, which was incubated at 37°C for 10 min. […] The ORAC values were calculated by the regression equation between the Trolox concentration and the net area under the curve (expressed as μmol Trolox eq/μmol sample).

[8] = DPPH radical scavenging activity; conditions: 0.1 mM DPPH in methanol, 37°C, 30 min
Experimental: This assay was conducted as previously described by Wen et al. with some modifications. DPPH was freshly prepared in methanol at a concentration of 0.1 mM. The solution (20 μL) containing the tested compounds with different concentrations was added into the DPPH solution (180 μL) in the 96-well plates. […] The IC50 value was calculated on the scavenging activity against DPPH radical.

[9] = HepG2, pretreatment before ABAP

COc1c(-c2ccc(O)c(O)c2)oc2cc(O)cc(O)c2c1=O [compound 5, 3-O-methylquercetin]
CAT activity of PC value ([1]; HepG2, pretreated with 15 μM): 49.55 ± 3.21% | CAT activity of PC value ([1]; HepG2, pretreated with 30 μM): 69.34 ± 5.15% | CAT activity of PC value ([1]; HepG2, pretreated with 45 μM): 80.67 ± 7.13% | increase of CAT activity [1, 9]: dose-dependent manner | cytotoxicity revealed by the cell proliferative assay [2]: slightly cytotoxicity | IC50 ([2]; Homo sapiens): 90.7 ± 2.45 µM | cytotoxicity revealed by the cell proliferative assay ([2]; listed as 3-O-methylquercetin): low cytotoxicity | SOD activity compared to NC cells ([3]; HepG2, pretreated at a higher concentration): significant increase | SOD activity compared to NC cells ([3]; HepG2, pretreated with 15 μM): insignificant increase | cytotoxicity [4]: no significant effects | GSH-Px activity of PC value ([5]; HepG2, pretreated with 15 μM): 59.74 ± 3.23% | GSH-Px activity of PC value ([5]; HepG2, pretreated with 30 μM): 69.08 ± 4.27% | GSH-Px activity of PC value ([5]; HepG2, pretreated with 45 μM): 83.44 ± 4.18% | increase of GSH-Px activity [5, 9]: dose-dependent manner | EC50 [6]: 19.5 ± 1.48 µM | ORAC values [7]: 4.71 ± 0.12 μmol TE/μmol | IC50 [8]: > 200 µM

Source: publication PMC7525318, “Identification of Six Flavonoids as Novel Cellular Antioxidants and Their Structure-Activity Relationship” (Oxidative Medicine and Cellular Longevity, 2020)
